Read-outs that look alike come from different tables or passages of the source.
How the values were obtained:
mild to moderate UC = details: cited from earlier work
[1] = target: T1, mouse MCPT-6 (mouse orthologue of human beta-tryptase) (Mus musculus, UniProt P21845); experiment: Inhibition of recombinant mouse MCPT-6 (Ki); assay type: biochemical; details: recombinant enzyme
T1 sequence (P21845 32-276): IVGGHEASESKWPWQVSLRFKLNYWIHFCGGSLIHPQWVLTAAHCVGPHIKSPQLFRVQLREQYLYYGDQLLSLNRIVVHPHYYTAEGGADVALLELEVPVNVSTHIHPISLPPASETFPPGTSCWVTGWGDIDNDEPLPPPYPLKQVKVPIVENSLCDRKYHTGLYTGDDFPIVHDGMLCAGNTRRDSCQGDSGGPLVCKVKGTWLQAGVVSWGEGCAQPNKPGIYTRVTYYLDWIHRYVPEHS

[2] = tested on: TNBS-induced ulcerative colitis; experiment: Murine TNBS-induced ulcerative colitis; assay type: in vivo, male balb/mice; details: for % protective effect vs. TNBS alone: Colon wt/length (TNBS-719)/(TNBS-ctl) / % protective effect vs. TNBS alone: Diarrhea / % protective effect vs. TNBS alone: Dilation / % protective effect vs. TNBS alone: MPO / % protective effect vs. TNBS alone: Macroscopic Score / % protective effect vs. TNBS alone: Ulceration / % protective effect vs. TNBS alone: Body wt d 4 (% Δ719-% ΔTNBS)/(% Δ Ctl-% ΔTNBS) / % protective effect vs. TNBS alone: Tissue TNFα: day 4; for % protective effect vs. TNBS alone: Body wt d 4 (% Δ719-% ΔTNBS)/(% Δ Ctl-% ΔTNBS): oral once daily
Experimental: The effect of the compound of Formula I in murine TNBS-induced ulcerative colitis. TNBS (Trinitro benzene sulfonic acid) is known to induce colitis in some strains of mice and rats by haptenating colonic proteins, resulting in an immune response. This model resembles multiple features, both histologic and immunologic, of human IBD (particularly Crohn's disease).
In some experiments, male balb/mice were pre-sensitized with 1% TNBS administered epicutaneously on day −7. On Day 0, TBNS (2.5 mg/100 mcl) in 35% ethanol or 100 mg/kg TNBS in 50% ethanol, was administered intrarectally, and colitis-relevant readouts were measured 4 days later. The compound of Formula I as hydrochloride salt or as fumarate salt was administered orally in 1% carboxymethylcellulose-Tween. Sulfazalazine was given at 100 mg/kg. Both compounds were given once daily.
• 0 No damage • 1 Hyperemia without ulcers • 2 Hyperemia and bowel wall thickening without ulcers • 3 One site of ulceration without bowel wall thickening • 4 Two or more sites of ulceration/inflammation • 5 0.5 cm inflammation and major damage • 6-10 1 cm or more of major damage (0.5 cm=1 point) • 0/1 Diarrhea +/− • 0/1/2 No dilatation/partial dilatation/dilatation in the whole length

human beta-tryptase = human beta-tryptase (Homo sapiens, UniProt P20231); experiment: Inhibition of recombinant human beta-tryptase (Ki); assay type: biochemical; details: recombinant enzyme
TNBS-induced colitis = details: rat; intra-colonic injections of NM 10-9, 10-11 and 10-13 M daily for 6 days; compared with 5-ASA 25 mg/Kg; cited from earlier work
b-tryptase = b-tryptase (Homo sapiens, UniProt P20231); details: reported selective b-tryptase inhibitor at low doses; cited from earlier work
[3] = first Formula I / sulfazalazine column pair, sulfazalazine 100 mg/kg
[4] = second Formula I / sulfazalazine column pair, sulfazalazine 100 mg/kg

Sequence of human beta-tryptase (P20231 31-275): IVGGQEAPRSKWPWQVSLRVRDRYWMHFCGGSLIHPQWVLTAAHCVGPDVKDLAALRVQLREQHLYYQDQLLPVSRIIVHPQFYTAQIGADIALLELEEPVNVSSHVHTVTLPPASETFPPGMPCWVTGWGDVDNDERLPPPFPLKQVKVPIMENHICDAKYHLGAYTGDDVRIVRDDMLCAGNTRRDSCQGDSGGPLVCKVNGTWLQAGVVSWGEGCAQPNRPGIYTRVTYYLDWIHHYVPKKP
Sequence of b-tryptase (P20231 31-275): as above

Compound: NC(N)=Nc1ccc(CN2CCN(C(=O)O[C@@H]3CO[C@H]4[C@@H]3OC[C@H]4OC(=O)N3CCN(Cc4ccc(N=C(N)N)cc4)CC3)CC2)cc1 [APC-2059]
- safety and tolerability (mild to moderate UC; 20 mg, SC, BID for 28 days on background of oral 5-ASA): safe and well tolerated
- patients meeting remission criteria (DAI=0) (mild to moderate UC; 20 mg, SC, BID, 28 days, 5/56): 9%
- patients meeting primary EP as responded (DAI≦3) (mild to moderate UC; 20 mg, SC, BID, 28 days, 16/56): 29%
- patients meeting improved criteria (DAI≦3 or decreased by 4 points from baseline) (mild to moderate UC; 20 mg, SC, BID, 28 days, 27/56): 49%
- response rate, post hoc (mild to moderate UC; baseline DAI score 7-9, 6/33): 18%
- response rate, post hoc (mild to moderate UC; baseline DAI scores 6-7, 10/22): 45%
- response, post hoc (mild to moderate UC; one patient, baseline DAI=11): did not respond

Compound: COCCn1cc(C(=O)N2CCC(c3cc(CN)ccc3F)CC2)c2c(OC(F)(F)F)ccc(F)c21 [Formula I, [4-(5-Aminomethyl-2-fluorophenyl)piperidine-1-yl][7-fluoro-1-(2-methoxyethyl)-4-trifluoromethoxy-1H-indol-3-yl]methanone]
- Ki [1]: 920 nM
- % protective effect vs. TNBS alone: Colon wt/length (TNBS-719)/(TNBS-ctl) ([2]; Formula I 3 mpk): −10%
- % protective effect vs. TNBS alone: Diarrhea ([2]; Formula I 3 mpk): 50%
- % protective effect vs. TNBS alone: Dilation ([2]; Formula I 3 mpk): 25%
- % protective effect vs. TNBS alone: MPO ([2]; Formula I 3 mpk): 0%
- % protective effect vs. TNBS alone: Macroscopic Score ([2]; Formula I 3 mpk): 25%
- % protective effect vs. TNBS alone: Ulceration ([2]; Formula I 3 mpk): 23%
- % protective effect vs. TNBS alone: Colon wt/length (TNBS-719)/(TNBS-ctl) ([2]; Formula I 10 mpk): 16%
- % protective effect vs. TNBS alone: Diarrhea ([2]; Formula I 10 mpk): 50%
- % protective effect vs. TNBS alone: Dilation ([2]; Formula I 10 mpk): 38%
- % protective effect vs. TNBS alone: MPO ([2]; Formula I 10 mpk): 0%
- % protective effect vs. TNBS alone: Macroscopic Score ([2]; Formula I 10 mpk): 27%
- % protective effect vs. TNBS alone: Ulceration ([2]; Formula I 10 mpk): 25%
- decrease of macroscopic damage ([2]; doses ranging from 3-30 mg/kg, oral, once daily, hydrochloride or fumarate salt): 20-50%
- % protective effect vs. TNBS alone: Body wt d 4 (% Δ719-% ΔTNBS)/(% Δ Ctl-% ΔTNBS) [2, 3]: 20%
- % protective effect vs. TNBS alone: Colon wt/length (TNBS-719)/(TNBS-ctl) [2, 3]: 41%
- % protective effect vs. TNBS alone: Diarrhea [2, 3]: 50%
- % protective effect vs. TNBS alone: Dilation [2, 3]: 55%
- % protective effect vs. TNBS alone: MPO [2, 3]: 13%
- % protective effect vs. TNBS alone: Macroscopic Score [2, 3]: 51%
- % protective effect vs. TNBS alone: Tissue TNFα [2, 3]: 50%
- % protective effect vs. TNBS alone: Ulceration [2, 3]: 50%
- protective effects in multiple aspects of experimental colitis ([2]; oral, once daily, versus sulfazalazine positive control): compared well with the sulfazalazine positive control
- % protective effect vs. TNBS alone: Body wt d 4 (% Δ719-% ΔTNBS)/(% Δ Ctl-% ΔTNBS) [2, 4]: 27%
- % protective effect vs. TNBS alone: Colon wt/length (TNBS-719)/(TNBS-ctl) [2, 4]: 23%
- % protective effect vs. TNBS alone: Diarrhea [2, 4]: 57%
- % protective effect vs. TNBS alone: Dilation [2, 4]: 33%
- % protective effect vs. TNBS alone: MPO [2, 4]: 19%
- % protective effect vs. TNBS alone: Macroscopic Score [2, 4]: 30%
- % protective effect vs. TNBS alone: Ulceration [2, 4]: 21%
- Ki (human beta-tryptase): 38 nM

Compound: N=C(N)c1ccc2cc(OC(=O)c3ccc(N=C(N)N)cc3)ccc2c1 [Nafamostat mesilate]
- colonic mucosal inflammation (TNBS-induced colitis): significantly attenuated
- Ki (b-tryptase): 0.095 nM

Compound: O=C(O)c1cc(/N=N/c2ccc(S(=O)(=O)Nc3ccccn3)cc2)ccc1O [sulfazalazine, reference compound]
- % protective effect vs. TNBS alone: Body wt d 4 (% Δ719-% ΔTNBS)/(% Δ Ctl-% ΔTNBS) [2, 3]: 46%
- % protective effect vs. TNBS alone: Colon wt/length (TNBS-719)/(TNBS-ctl) [2, 3]: 29%
- % protective effect vs. TNBS alone: Diarrhea [2, 3]: 50%
- % protective effect vs. TNBS alone: Dilation [2, 3]: 33%
- % protective effect vs. TNBS alone: MPO [2, 3]: 44%
- % protective effect vs. TNBS alone: Macroscopic Score [2, 3]: 51%
- % protective effect vs. TNBS alone: Tissue TNFα [2, 3]: 50%
- % protective effect vs. TNBS alone: Ulceration [2, 3]: 53%
- % protective effect vs. TNBS alone: Body wt d 4 (% Δ719-% ΔTNBS)/(% Δ Ctl-% ΔTNBS) [2, 4]: 10%
- % protective effect vs. TNBS alone: Colon wt/length (TNBS-719)/(TNBS-ctl) [2, 4]: 23%
- % protective effect vs. TNBS alone: Diarrhea [2, 4]: 43%
- % protective effect vs. TNBS alone: Dilation [2, 4]: 8%
- % protective effect vs. TNBS alone: MPO [2, 4]: 21%
- % protective effect vs. TNBS alone: Macroscopic Score [2, 4]: 14%
- % protective effect vs. TNBS alone: Ulceration [2, 4]: 11%
